Measurements reported in patent US6756362B2, “Methods and compositions based on inhibition of cell invasion and fibrosis by anionic polymers” (priority 1991, dated 2004).

Experiments:
[1] = test system: epidural fibrosis at laminectomy site, Lewis inbred rats; assay: Epidural fibrosis after lumbar laminectomy in rats, gross evaluation; assay type: in vivo, rat; parameters: TOTAL SCORE / TOTAL SCORE 2 WEEKS: scale not given here; settings: for inhibition of scar formation (in words): versus buffer control; for TOTAL SCORE 2 WEEKS: Table 4, 2 weeks post-implantation; for Bone Growth / Deep Scar / Gelfoam Appearance: score 0-3 per Table 1; for Bone Growth / Deep Scar / Gelfoam Appearance / Superficial Scar: agent-soaked GELFOAM in laminectomy site; for Superficial Scar: score 1-3 per Table 1
Description: Epidural fibrosis was investigated after lumbar laminectomy in rats. In this model, a laminectomy was performed at the lumbar 3 and 5 vertebrae and then the test agent was applied to the laminectomy site. Subsequently, the laminectomy sites were examined for fibrosis by gross dissection or by histological analysis.
Laminectomies (described below) were performed at lumbar vertebrae L3 and L5 to provide auto-controls within each animal. Segments of GELFOAM® (Upjohn) soaked with experimental or control solutions were inserted into the laminectomy site. The soared GELFOAM® fragments were prepared and coded 24 hours beforehand. The GELFOAM® segments were soaked in solutions of dextran sulfate in calcium/magnesium-free phosphate buffered saline (CMF-PBS), dextran in CMF-PBS, or CMF-PBS alone. In some laminectomy sites, the GELFOAM® fragments were omitted, in order to serve as sham operations. Subsequently, the evaluation by gross dissection was done without knowledge of which solutions had been placed in which laminectomy site. Thus, the experiments were double-blind.
Lewis inbred rats were anesthetized with 4% chloral hydrate (34 mg/100 g body weight). The dorsal skin was incised and the paraspinal muscles were separated from the spinous processes of lumbar vertebrae L2 through L6. The spinous processes of L3 and L5 were removed with a rongeurs; then the vertebral lamina was removed with a micro-rongeurs creating a rectangular laminectomy defect 4×2 mm in size. After bleeding was stopped, a GELFOAM® segment was placed into the laminectomy site according to a randomized protocol. The overlying paraspinal muscles were closed over the site by suturing the superficial fascia together with resorbable 6-0 PDS II (Ethicon). The skin incision was closed with wound clips.
The animals were kept for two weeks prior to gross evaluation. At that time, the rats were anesthetized with 4% chloral hydrate and the wound was reopened by incising, the skin and separating the paraspinal muscles. The quality and quantity of scar tissue above the laminectomy site, the appearance of the GELFOAM® and the extent of new bone growth was evaluated by visual and tactile observation during sharp dissection. After the gross evaluation was complete, the rats were euthanized by anesthesia overdose.
All gross evaluations were made prior to breaking the treatment code, but the observations have been tabulated and presented below according to treatment group.

Sulfur content = assay type: physicochemical; settings: by weight
PC12 cells = assay: PC12 neurite outgrowth assay; assay type: cell-based; settings: NGF-primed PC12 cells; scored 2 days later
Description: Cell lines. Murine 3T3 fibroblast (NIH), rat C6 glioma (Paganetti et al., 1988, J. Cell Biol. 107:2281) and MCG-28 young immortalized mouse astrocyte (a murine neonatal astrocyte line immortalized with SV-40) were grown in medium composed of Dulbecco's modified Eagle medium (DMEM), 10% fetal calf serum (Gibco Laboratories), and penicillin G/streptomycin (100 units/ml, 100 μg/ml respectively, Gibco Laboratories). For the stripe assay, confluent plates were disaggregated with 0.05% trypsin, 0.53 mM EDTA (Gibco Laboratories) and seeded at 200,000 cells/ml (3 ml/plate). For the cell adhesion assays, confluent cultures were disaggregated with 0.03% EDTA and plated in a 96-well microtiter plate at 20,000-100,000 cells per well. PC12 cells, a pheochromocytoma cell line (Green L. A. & Tischler A. S., 1976, Proc. Natl. Acad. Sci. U.S.A. 73:2424), were grown in medium containing Roswell Park Memorial Institute (RPMI) medium 1640 (Gibco Laboratories), 10% horse serum, 5% fetal calf serum (FCS), and penicillin G/streptomycin (100 units/ml, 100 μg/ml respectively, Gibco Laboratories). The cells were disaggregated with 0.03% EDTA and plated in a 96-well microtiter plate at 3,000 cells per well.
PC12 cells were primed with 20 ng/ml NGF for 8 days, collected with 0.03% EDTA in PBS and plated in precoated 96-well microtiter plates at 3,000 cells/well. The microtiter plates were precoated with poly-L-lysine and blocked with adhesion medium (1% BSA in RPMI) for 20 min prior to addition of cells. The cells were grown in adhesion medium supplemented with 20 ng/ml NGF. The cells were allowed to attach for 2 hr prior to the addition of the test compounds (Akeson and Warren, 1986, Exp. Cell Res. 162:347-362).
PC-12 cells primed with NGF were plated in 96-well plates. Test solutions were added to the wells and the cells were scored 2 days later as (+) if neurites of at least two cell bodies diameter in length were present on the majority of the cells, and (−) if no or only short processes were present. […] The compounds tested included GAGs (heparin, dermatan sulfate, chondroitin sulfate A, keratan sulfate and hyaluronic acid), sulfated carbohydrate polymers (dextran sulfate and pentosan polysulfate), and another polyanionic polymer (e.g., alginic acid).

[2] = test system: rat meningeal fibroblasts (RMF); assay: Colorimetric cell adhesion assay, RMF; assay type: cell-based; settings: RMF on PLL; 4 hr incubation; FIG. 7
Description: Primary Cell Cultures. Primary cultures of rat meningeal fibroblasts (RMF) were obtained from P-3 rat pups. The tissue was removed from the animals and transferred to Leibovitz's L-15 with L-glutamine medium. The tissue was then cut into small pieces with a scalpel blade, enzymatically dissociated with 0.25% trypsin in Ca^2+/Mg^2+ free Hank's balanced salt solution (CMF-HBSS, Gibco Laboratories) for 20 minutes at 37° C., and mechanically triturated. The cells were rinsed with DMEM plus 10% FCS, concentrated by centrifugation and subsequently diluted in DMEM with 10% FCS for plating at 5.0×10^6 cells per 75 cm^2 flask. Adult rat sciatic nerve fibroblasts (RSF) were obtained by explantation of 1 mm sections of adult rat sciatic nerve.
Microtiter plates were precoated with poly-L-lysine and blocked with 1% BSA in DMEM for 20 min prior to addition of cells. The cells were plated on the precoated 96-well plates and test compounds were added to the culture medium. Following 4-24 hr incubation at 36° C., 5% C02, in a humidified incubator, the tetrazolium salt MTT (3-(4,5-dimethylthazol-2-yl)-2,5-diphenyl tetrazolium bromide) was added. The cultures were incubated for 2 hr to allow mitochondrial succinate dehydrogenase, found in viable cells, to […] the MTT to its formazan blue reaction product. The media was aspirated and the wells were rinsed to remove all detached cells. The formazan blue reaction product in attached cells was solubilized with 0.08 N HCl in isopropanol, and the plates were read in a microtiter plate reader (Dynatech MR4000) at 570 nm with a 630 nm reference filter. The resulting optical density readings are directly related to the number of viable cells in the well (Mosmann, T., 1983, J. Immunol. Methods 65:55-63). The samples were run in 3-6 replicates per point and the SD was less than 5%.
The adhesion of fibroblasts to PLL-coated microtiter plates in the presence of test compounds in the culture medium was evaluated using an MTT assay as described in Section 8.1.5., supra, and the number of attached cells was expressed as percent of control. The effect of 4 hr incubation in the presence of heparin, pentosan polysulfate, dextran sulfate, and dextran on adhesion of rat meningeal fibroplasts (RMF) and 3T3 cells to PLL is shown in FIG. 7.

[3] = Table 2, sum of four criteria, lower = greater inhibition of scar formation, two weeks

| hemorrhage and hematoma formation at the laminectomy site ([1]; rat, in vivo) | Sulfur Content (Sulfur content) | hemorrhage and hematoma formation at the laminectomy site ([1]; rats, applied at laminectomy site) | Substance | inhibition of scar formation (in words) ([1]; 20 mg/ml) | TOTAL SCORE ([1]; Table 5, agent 20 mg/ml) | IC100, minimum concentration causing 100% inhibition of neurite outgrowth (PC12 cells) | number of attached cells compared to untreated controls [2] | TOTAL SCORE [1, 3] | TOTAL SCORE 2 WEEKS ([1]; 20 mg/ml) | Bone Growth ([1]; two weeks) | Deep Scar ([1]; two weeks) | Gelfoam Appearance ([1]; two weeks) | Superficial Scar ([1]; two weeks) | TOTAL SCORE ([1]; Table 3 dose response, 0.2 mg/ml) | TOTAL SCORE ([1]; Table 3 dose response, 2 mg/ml) | TOTAL SCORE ([1]; Table 3 dose response, 20 mg/ml) |
| --- | --- | --- | --- | --- | --- | --- | --- | --- | --- | --- | --- | --- | --- | --- | --- | --- |
| caused hemorrhage and hematoma formation | 11.8% | – | Heparin | marginal improvement | 7.3 ± 2.5 | 2.6e-07 g/mL | decreased | – | – | – | – | – | – | – | – | – |
| – | 0% | – | dextran [reference compound] | – | 8.8 ± 2.4 | >0.001 g/mL | slight increase | 8.8 ± 2.4 | 9.5 ± 2.4 | 1.6 ± 0.9 | 2.3 ± 0.9 | 2.2 ± 0.8 | 2.7 ± 0.5 | – | – | – |
| – | 15.3% | not seen | dextran sulfate | potent inhibition | 1.7 ± 0.9 | 5.2e-07 g/mL | decreased | 1.7 ± 0.9 | 1.2 ± 0.5 | 0.1 ± 0.3 | 0.3 ± 0.5 | 0.1 ± 0.3 | 1.2 ± 0.4 | 7.8 ± 1.9 | 3.0 ± 2.3 | 1.3 ± 0.5 |
